Like-named read-outs stand apart in the source and are kept apart here.
Tests used:
C57BL/6 mice irradiated = test: Irradiated mouse model, fecal PCL-1/luciferin marker by LC-MS/MS; assay type: in vivo
Procedure: (§1) C57BL/6 mice were irradiated at a high lethal dose of 13Gy or at a LD70/30 of 8.1Gy in independent experiments using a Cs^137 source. PCL-1 was administered via oral gavage at 40 or 60 μM/animal, 0.2 mL volume per animal. Fecal samples were collected […] from the irradiated and non-irradiated mice at different time points (pre-dose, 4, 6 and 8 hr post-dose) prior to irradiation and also on days 1, 5 and 7 post-irradiation from all animals. PCL-1 and cleaved PCL-1 (luciferin) levels were measured in the feces using LC-MS/MS method.

[1] = Maximum fecal concentrations after oral administration of PCL-1; assay type: in vivo, mice; details: up to a 6.25 fold increase in dose
Procedure: as §1
Additionally with up to a 6.25 fold increase in dose a directly proportional fold increase in marker detected was not observed.

[2] = Yield of D-Luciferin (A385) after treatment with H2O2
Description: (§2) The environment inside most cellular compartments is “reducing”—a status heavily dependent on the multiple antioxidant systems that rapidly detoxify oxidants in cells such as thioredoxins and glutathione/glutathione reductase redox systems and catalase. A viable biosensor for an oxidant inside of cells and tissue should detect its target in the presence of these and other ubiquitous milieu components.
(§3) Data were normalized to bioluminescence obtained from an identical treatment of authentic D-Luciferin (5 μM). […] In all cases, spectral contributions from oxidants were subtracted via a parallel blank experiment containing no PCL-1.

[3] = tested on: mouse bone marrow-derived macrophages (BMDM); test: Detection of iNOS-derived peroxynitrite in LPS-stimulated macrophages; assay type: cell-based
Procedure: Bone marrow derived macrophages were prepared using 10% L929 cell (ATCC) supernatant in RPMI medium (Cellgro) made complete with 10% FBS, penicillin, streptomycin, and glutamine (Gibco). Cells were cultured 4-6 days prior to plating for experiments in opaque, white microtiter plates (Falcon) for analysis on a Wallac Victor2 luminometer (PerkinElmer).
In order to validate the utility of PCL-1 to detect peroxynitrite in cells, mouse bone marrow-derived macrophages (BMDM) were stimulated with 50 ng/mL bacterial LPS (lipopolysaccharide) for 22 hours, 5 μM PCL-1 was added for an additional 2 hours, then D-Luciferin generated was quantified over the course of 2 hours by addition of […] recombinant luciferase, according to Example 1.

[4] = Safety of PCL-1 in mice, oral gavage; assay type: in vivo; details: 40 to 250 μM per animal via oral gavage
[5] = Yield of D-Luciferin (A385) after treatment with peroxynitrite (bolus or SIN-1 derived); details: for Maximum Yield Luciferin(%): 5 μM PCL-1 in TBS, pH 8.5, 37° C., 90 minutes, A385
Description: Where applicable, spectral contributions from oxidants were subtracted via a parallel blank experiment containing no PCL-1.
as §2, §3

[6] = Rate constant of reaction with H2O2; details: 100 mM sodium phosphate, pH 7.4, 37° C. (Table 3)
[7] = Rate constant of reaction with peroxynitrite, stopped-flow spectroscopy; details: 100 mM sodium phosphate, pH 7.4, 37° C. (Table 3)
[8] = Reactivity of PCL-1 towards other oxidants
[9] = Total bioluminescence after minimal SIN-1 or H2O2 (FIG. 1); details: 60 minutes at 37° C.
Procedure: Recombinant luciferase was added to the reaction mixture and bioluminescence was detected at 612 nm for 60 minutes. D-Luciferin (5 μM) was used as a determinant of maximum yield.

[10] = rate constant of the competing milieu component with peroxynitrite; cited from earlier work

With `O=C(O)[C@H]1CSC(c2nc3ccc(OCc4ccc(B(O)O)cc4)cc3s2)=N1` [PCL-1] the “increase in PCL-1 and % cleaved PCL-1 levels in the feces” value (C57BL/6 mice irradiated; 8.1Gy irradiation, until day 7) was “two-fold or more increase”, the “increase in the level of the marker in fecal samples vs control” value (C57BL/6 mice irradiated; 13Gy, days 5 to 7, PCL-1 oral gavage) was “about 3 fold” and the “dose dependence of fecal detection” value [1] was “not dose dependent”. The “Maximum Yield Luciferin(%)” value ([2]; H2O2 (100 μM) added to 5 μM PCL-1 in TBS, pH 8.5, 37° C., 90 minutes, A385 normalized to authentic D-luciferin) was 97%, the yield luciferin ([2]; H2O2 as oxidant, with added BSA) was 7.38±1.39% and the “H2O2-mediated conversion to luciferin” value ([2]; in the presence of GSH, albumin or catalase) was “negligible”. For the same molecule, the “conversion to luciferin by H2O2” value ([2]; in vitro, in the absence of GSH, albumin, or catalase) was “quantitatively converted to luciferin”, the D-Luciferin signal ([3]; BMDMs from iNOS^−/− animals, LPS) was “no signal above baseline” and the “D-Luciferin production over the baseline value” ([3]; wild-type macrophages, LPS 50 ng/mL, 5 μM PCL-1) was “nearly two-fold increase”. The signs of toxicity [4] was “no signs of toxicity were observed”, the D-luciferin obtained ([5]; SIN-1, in the presence of BSA) was 45.49% and the “effect of GSH, albumin or catalase on peroxynitrite reactivity” value ([5]; at the tested concentrations) was no more than 10%. For the same molecule, the “Maximum Yield Luciferin(%)” value ([5]; peroxynitrite bolus (10 μM)) was 95%, the “Maximum Yield Luciferin(%)” value ([5]; peroxynitrite from SIN-1 (100 μM)) was 96% and the “yield of D-Luciferin” value ([5]; peroxynitrite, in the presence of 66.5 mg/mL BSA (1.0 mM)) was 87.5±7.48%. For the same molecule, the kH2O2 [6] was 1.2 (±0.3) M^−1s^−1, the “kONOO−” value [7] was 9.8 (±0.1) × 10^5 M^−1s^−1 and the “sensitivity towards NO, superoxide radical anion, HOCl, and singlet oxygen” value [8] was “insensitive”.

For `O=C(O)[C@H]1CSC(c2nc3ccc(OCc4ccc(B(O)O)c(F)c4)cc3s2)=N1` [PCL-F, (S)-2-(6-(4-borono-3-fluorobenzyloxy)benzo[d]thiazol-2-yl)-4,5-dihydrothiazole-4-carboxylic acid], the “reactivity with H2O2” value ([2]; 5 μM in TBS, pH 8.5, 37° C., 100 μM H2O2, 90 minutes, compared to PCL-1) was “Little reactivity”, the “glutathione concentration until which reactivity with SIN-1 was retained” value ([5]; 5 μM, 100 μM SIN-1, 90 minutes) was 1 to 5 mM and the resistance to hydrolysis ([9]; 5 μM, bioluminescence at 612 nm) was “resistant to hydrolysis in comparison to PCL-1”. For the same molecule, the “selectivity in detecting peroxynitrite vs. hydrogen peroxide” value ([9]; SIN-1 (2.5 μM) or H2O2 (25 μM)) was “more selective than PCL-1”, the kH2O2 [6] was 0.11 (±0.02) M^−1s^−1 and the “kONOO−” value [7] was 4.5 (±0.2) × 10^5 M^−1s^−1.

In the case of `N[C@@H](CCC(=O)N[C@@H](CS)C(=O)NCC(=O)O)C(=O)O` [glutathione], the “kONOO−” value [10] is listed as 1400 M⁻¹ s⁻¹.

In the case of “bovine serum albumin: milieu component competing for oxidants”, the “kONOO−” value [10] is given as 8310 M⁻¹ s⁻¹.

Reference: US9643985B2, “PCL compounds, compositions, and methods of use thereof” (The Board Of Trustees Of The University Of Illinois, priority 2013, dated 2017)
